These results are taken from patent publication US20080139558A1, “QUINOLONES USEFUL AS INDUCIBLE NITRIC OXIDE SYNTHASE INHIBITORS” (KALYPSYS, INC., priority 2006, published 2008).

T1 sequence (P35228 whole entry): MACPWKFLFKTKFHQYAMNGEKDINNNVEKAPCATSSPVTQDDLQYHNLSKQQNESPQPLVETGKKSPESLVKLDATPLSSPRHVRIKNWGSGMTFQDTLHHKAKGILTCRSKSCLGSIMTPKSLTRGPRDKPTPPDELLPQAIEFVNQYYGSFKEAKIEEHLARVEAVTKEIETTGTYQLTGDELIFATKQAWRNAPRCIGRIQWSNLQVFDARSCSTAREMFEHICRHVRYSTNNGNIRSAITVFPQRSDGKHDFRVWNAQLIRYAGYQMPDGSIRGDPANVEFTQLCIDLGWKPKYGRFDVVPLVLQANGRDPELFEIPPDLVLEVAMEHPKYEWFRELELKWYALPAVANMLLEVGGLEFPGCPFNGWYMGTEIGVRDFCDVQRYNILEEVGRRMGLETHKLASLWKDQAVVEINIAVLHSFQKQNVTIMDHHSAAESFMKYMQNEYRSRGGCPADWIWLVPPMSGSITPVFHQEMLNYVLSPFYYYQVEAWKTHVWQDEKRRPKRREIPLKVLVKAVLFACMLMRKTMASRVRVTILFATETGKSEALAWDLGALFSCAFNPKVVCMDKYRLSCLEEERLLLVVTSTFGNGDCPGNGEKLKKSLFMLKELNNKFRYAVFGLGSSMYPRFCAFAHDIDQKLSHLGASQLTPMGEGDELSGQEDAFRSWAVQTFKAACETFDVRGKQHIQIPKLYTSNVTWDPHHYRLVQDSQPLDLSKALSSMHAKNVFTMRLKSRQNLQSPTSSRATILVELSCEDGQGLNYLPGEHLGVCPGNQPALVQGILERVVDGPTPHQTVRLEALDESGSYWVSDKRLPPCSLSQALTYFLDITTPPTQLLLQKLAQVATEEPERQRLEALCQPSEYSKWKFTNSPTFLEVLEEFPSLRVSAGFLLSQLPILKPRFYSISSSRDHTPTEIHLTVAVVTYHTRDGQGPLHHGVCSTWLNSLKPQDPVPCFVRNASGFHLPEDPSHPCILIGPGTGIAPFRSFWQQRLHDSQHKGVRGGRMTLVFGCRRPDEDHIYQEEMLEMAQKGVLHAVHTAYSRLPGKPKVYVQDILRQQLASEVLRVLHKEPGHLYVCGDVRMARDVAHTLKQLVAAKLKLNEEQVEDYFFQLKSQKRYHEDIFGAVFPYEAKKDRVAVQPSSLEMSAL

The test concerns the target T1, human iNOS (Homo sapiens, UniProt P35228).
T1 construct: expressed in transfected cells; host or cells: HEK293
The experiment in a line: DAN assay of nitric oxide production (hiNOS). Format: cell-based. The following applies: enzyme expressed in HEK293 cells transiently transfected with human iNOS. Summed up:
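Human iNOS transiently expressed in HEK293 cells; NO production quantified as nitrite via 2,3-diaminonaphthalene reaction forming fluorescent naphthotriazole.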
`Cc1ncsc1C(=O)N(Cc1cc(=O)[nH]c2c(F)c(F)ccc12)c1ccccn1` [Example 264, N-((7,8-Difluoro-2-oxo-1,2-dihydroquinolin-4-yl)methyl)-4-methyl-N-(pyridin-2-yl)thiazole-5-carboxamide]: the EC50 (commonly the concentration needed to bring the measured effect to its halfway point) is greater than 5 µM.
The figure for `Cc1ncsc1C(=O)N(Cc1cc(=O)[nH]c2c(F)c(F)ccc12)c1cccc(Cl)c1C` [Example 184, N-(3-Chloro-2-methylphenyl)-N-((7,8-difluoro-2-oxo-1,2-dihydroquinolin-4-yl)methyl)-4-methylthiazole-5-carboxamide] is no more than 5 µM; for `Cc1ncsc1C(=O)N(Cc1cc(=O)[nH]c2ccccc12)c1cccc(C(F)(F)F)c1` [Example 40, 4-Methyl-N-((2-oxo-1,2-dihydroquinolin-4-yl)methyl)-N-(3-(trifluoromethyl)phenyl)thiazole-5-carboxamide] it is greater than 5 µM; for `Cc1nc(C)n(Cc2cc(=O)[nH]c3c(F)c(F)ccc23)c1C` [Example 256, 7,8-Difluoro-4((2,4,5-trimethyl-1H-imidazol-1-yl)methyl)quinolin-2(1H)-one] it is greater than 5 µM.
`Cc1ncsc1C(=O)N(Cc1cc(=O)[nH]c2c(F)c(F)ccc12)c1ccc(C#N)c(Cl)c1` [Example 182, N-(3-Chloro-4-cyanophenyl)-N-((7,8-fluoro-2-oxo-1,2-dihydroquinolin-4-yl)methyl)-4-methylthiazole-5-carboxamide] displayed an EC50 of no more than 5 µM.
As for `CC(C)C(=O)N(Cc1cc(=O)[nH]c2ccccc12)c1ccccc1` [Example 5, N-((2-Oxo-1,2-dihydroquinolin-4-yl)methyl)-N-phenylisobutyramide], the EC50 is greater than 5 µM.
Next, `Cc1ncsc1C(=O)N(Cc1cc(=O)[nH]c2c(F)c(F)ccc12)c1ccc(F)c(Cl)c1` [Example 181, N-(3-Chloro-4-fluorophenyl)-N-((7,8-fluoro-2-oxo-1,2-dihydroquinolin-4-yl)methyl)-4-methylthiazole-5-carboxamide]: no more than 5 µM.
In turn, `O=c1cc(Cn2c(-c3cscn3)nc3ccccc32)c2ccc(F)c(F)c2[nH]1` [Example 193, 7,8-Difluoro-4-((2-(thiazol-4-yl)-1H-benzo[d]imidazol-1-yl)methyl)quinolin-2(1H)-one] came in with an EC50 greater than 5 µM.
Consider `Cc1ncsc1C(=O)N(Cc1c(F)c(=O)[nH]c2c(F)c(F)ccc12)c1cccc(Cl)c1` [Example 115, N-(3-Chlorophenyl)-4-methyl-N-((3,7,8-trifluoro-2-oxo-1,2-dihydroquinolin-4-yl)methyl)thiazole-5-carboxamide], for which the EC50 was no more than 5 µM.
`COc1ccc2[nH]c(=O)cc(CN(C(=O)c3ccco3)c3ccccc3)c2c1` [Example 19, N-((6-Methoxy-2-oxo-1,2-dihydroquinolin-4-yl)methyl)-N-phenylfuran-2-carboxamide] displayed an EC50 of no more than 5 µM.
Next, `O=c1cc(Cn2c(Cc3ccccc3)nc3ccccc32)c2ccc(F)c(F)c2[nH]1` [Example 214, 4-((2-Benzyl-1H-benzo[d]imidazol-1-yl)methyl)-7,8-difluoroquinolin-2(1H)-one]: no more than 5 µM; `O=C(c1ccccn1)N(Cc1cc(=O)[nH]c2ccccc12)c1ccccc1` [Example 32, N-((2-Oxo-1,2-dihydroquinolin-4-yl)methyl)-N-phenylpicolinamide]: greater than 5 µM; `Cc1nc(Br)sc1C(=O)N(Cc1cc(=O)[nH]c2ccccc12)c1ccccc1` [Example 99, 2-Bromo-4-methyl-N-((2-oxo-1,2-dihydroquinolin-4-yl)methyl)-N-phenylthiazole-5-carboxamide]: no more than 5 µM.
For the compound `CC(=O)N(Cc1cc(=O)[nH]c2ccccc12)c1ccccc1` [Example 3, N-[(2-Oxo-1,2-dihydroquinolin-4-yl)methyl]-N-phenylacetamide], the concentration giving a half-maximal response (EC50) is greater than 5 µM.
Take `O=C(c1ccncc1)N(Cc1cc(=O)[nH]c2c(F)cccc12)c1cccc(Cl)c1` [Example 69, N-(3-Chlorophenyl)-N-((8-fluoro-2-oxo-1,2-dihydroquinolin-4-yl)methyl)isonicotinamide]: the EC50 is greater than 5 µM.
`COc1cccc(N(Cc2cc(=O)[nH]c3c(F)cccc23)C(=O)c2scnc2C)c1` [Example 262, N-((8-Fluoro-2-oxo-1,2-dihydroquinolin-4-yl)methyl)-N-(3-methoxyphenyl)-4-methylthiazole-5-carboxamide] yielded an EC50 of no more than 5 µM.
`Cc1nc(S(=O)(=O)N(Cc2cc(=O)[nH]c3c(F)c(F)ccc23)c2cccc(Cl)c2)cn1C` [Example 265, N-(3-Chlorophenyl)-N-((7,8-difluoro-2-oxo-1,2-dihydroquinolin-4-yl)methyl)-1,2-dimethyl-1H-imidazole-4-sulfonamide] displayed an EC50 of no more than 5 µM.
Compound `Cc1ncsc1C(=O)N(Cc1cc(=O)[nH]c2c(F)c(F)ccc12)c1cccc(Cl)c1F` [Example 96, N-(3-Chloro-2-fluorophenyl)-N-((7,8-fluoro-2-oxo-1,2-dihydroquinolin-4-yl)methyl)-4-methylthiazole-5-carboxamide] had an EC50 of no more than 5 µM.
Consider `Cc1nc(N(C)C)sc1C(=O)N(Cc1cc(=O)[nH]c2c(F)cccc12)c1ccc(F)c(Cl)c1` [Example 98, N-(3-Chloro-4-fluorophenyl)-2-(dimethylamino)-N-((8-fluoro-2-oxo-1,2-dihydroquinolin-4-yl)methyl)-4-methylthiazole-5-carboxamide], for which the EC50 was no more than 5 µM.
In the case of `O=C(C1CC1)N(Cc1cc(=O)[nH]c2c(F)cccc12)c1cccc(Cl)c1` [Example 81, N-(3-Chlorophenyl)-N-((8-fluoro-2-oxo-1,2-dihydroquinolin-4-yl)methyl)cyclopropanecarboxamide], the EC50 is greater than 5 µM.
In turn, `CN(C)c1cccc(C(=O)N(Cc2cc(=O)[nH]c3c(F)cccc23)c2cccc(Cl)c2)c1` [Example 75, N-(3-Chlorophenyl)-3-(dimethylamino)-N-((8-fluoro-2-oxo-1,2-dihydroquinolin-4-yl)methyl)benzamide] yielded an EC50 greater than 5 µM.
Regarding `Cc1ncsc1C(=O)N(Cc1cc(=O)[nH]c2cc(F)c(F)cc12)c1cccc(Cl)c1` [Example 109, N-(3-Chlorophenyl)-N-((6,7-difluoro-2-oxo-1,2-dihydroquinolin-4-yl)methyl)-4-methylthiazole-5-carboxamide], the EC50 is no more than 5 µM.
The compound `Cc1ccncc1C(=O)N(Cc1c(F)c(=O)[nH]c2c(F)cccc12)c1cccc(Cl)c1` [Example 114, N-(3-Chlorophenyl)-N-((3,8-difluoro-2-oxo-1,2-dihydroquinolin-4-yl)methyl)-4-methylnicotinamide] registered an EC50 of no more than 5 µM.
Regarding `Cc1cccnc1C(=O)N(Cc1cc(=O)[nH]c2c(F)cccc12)c1cccc(Cl)c1` [Example 73, N-(3-Chlorophenyl)-N-((8-fluoro-2-oxo-1,2-dihydroquinolin-4-yl)methyl)-3-methylpicolinamide], the EC50 was greater than 5 µM.
For `O=c1cc(Cn2c(-c3ccncc3F)nc3ccccc32)c2ccc(F)c(F)c2[nH]1` [Example 244, 7,8-Difluoro-4-((2-(3-fluoropyridin-4-yl)-1H-benzo[d]imidazol-1-yl)methyl)quinolin-2(1H)-one], the concentration for a half-maximal effect (EC50) was no more than 5 µM.
The figure for `O=C(c1ccc(F)cc1)N(Cc1cc(=O)[nH]c2c(F)cccc12)c1cccc(Cl)c1` [Example 56, N-(3-Chlorophenyl)-4-fluoro-N-((8-fluoro-2-oxo-1,2-dihydroquinolin-4-yl)methyl)benzamide] is greater than 5 µM; for `O=c1cc(Cn2c(C3CCCO3)nc3ccccc32)c2ccc(F)c(F)c2[nH]1` (racemic) [Example 250, 7,8-Difluoro-4-((2-(tetrahydrofuran-2-yl)-1H-benzo[d]imidazol-1-yl)methyl)quinolin-2(1H)-one] it is no more than 5 µM.
Turning to `Cc1c(-c2nc3ccccc3n2Cc2cc(=O)[nH]c3c(F)c(F)ccc23)ncn1C` [Example 226, 4-((2-(1,5-Dimethyl-1H-imidazol-4-yl)-1H-benzo[d]imidazol-1-yl)methyl)-7,8-difluoroquinolin-2(1H)-one], the 50% effective concentration (EC50) was greater than 5 µM.
`Cc1nc(N2CCN(C)CC2)sc1C(=O)N(Cc1cc(=O)[nH]c2ccccc12)c1ccccc1` [Example 102, 4-Methyl-2-(4-methylpiperazin-1-yl)-N-((2-oxo-1,2-dihydroquinolin-4-yl)methyl)-N-phenylthiazole-5-carboxamide]: the EC50 is greater than 5 µM.
Next, `O=c1cc(Cn2c(CCC3CCCCC3)nc3ccccc32)c2ccc(F)c(F)c2[nH]1` [Example 213, 4-((2-(2-Cyclohexylethyl)-1H-benzo[d]imidazol-1-yl)methyl)-7,8-difluoroquinolin-2(1H)-one]: greater than 5 µM; `O=C(c1cnccn1)N(Cc1cc(=O)[nH]c2c(F)cccc12)c1cccc(Cl)c1` [Example 70, N-(3-Chlorophenyl)-N-((8-fluoro-2-oxo-1,2-dihydroquinolin-4-yl)methyl)pyrazine-2-carboxamide]: greater than 5 µM.
Compound `Cc1ncsc1C(=O)N(c1cccc(Cl)c1)C(F)c1cc(=O)[nH]c2c(F)cccc12` (centres unmarked) [Example 253, N-(3-Chlorophenyl)-N-(fluoro(8-fluoro-2-oxo-1,2-dihydroquinolin-4-yl)methyl)-4-methylthiazole-5-carboxamide] returned a concentration for a half-maximal effect (EC50) of no more than 5 µM.
On to `Cc1ncccc1C(=O)N(Cc1cc(=O)[nH]c2c(F)cccc12)c1cccc(Cl)c1` [Example 71, N-(3-Chlorophenyl)-N-((8-fluoro-2-oxo-1,2-dihydroquinolin-4-yl)methyl)-2-methylnicotinamide], for which the EC50 was greater than 5 µM.
Consider `Cc1ccc(N(Cc2cc(=O)[nH]c3c(F)c(F)ccc23)C(=O)c2scnc2C)cc1Cl` [Example 177, N-(3-Chloro4-methylphenyl)-N-((7,8-fluoro-2-oxo-1,2-dihydroquinolin-4-yl)methyl)-4-methylthiazole-5-carboxamide], for which the EC50 is no more than 5 µM.
`O=c1cc(Cn2c(-c3ccc(F)cc3)nc3ccccc32)c2ccc(F)c(F)c2[nH]1` [Example 197, 7,8-Difluoro-4-((2-(4-fluorophenyl)-1H-benzo[d]imidazol-1-yl)methyl)quinolin-2(1H)-one] had an EC50 greater than 5 µM.
